Measured values taken from patent publication US10265278B2, “Pharmaceutical compositions and methods utilizing a D-amino acid” (priority 2008, dated 2019).
Where two headings read alike, the source gives them in different places. Blank lines part the entries; values can stand above or below the compound they belong to.

What was measured:
rat kidney [1] = conditions: cited from earlier work; for Protective effect against D-serine nephrotoxicity: compound injected prior to D-serine (Kaltenbach et al 1982); for Effect on nephrotoxic effects of orally administered DL-serine: DL-serine 100 mg oral, test compound subcutaneous or intramuscular, rats (Wachstein)
rat kidney [2] = conditions: cited from earlier work
Sprague Dawley rats [3] = assay: Histopathological examination of kidney at necropsy (tubular nephrosis grade); type: in vivo; conditions: histopathology at necropsy; oral gavage up to 400 mg/kg
Method: (§1) Rats were divided into 5 separate groups of four male and four female animals each.
(§2) In addition, a control group received only standard diet. […] Effects of various doses were investigated in a sequential manner starting with 50 mg/kg. Dose level was doubled every three days up to four doses (50 mg, 100 mg, 200 mg & 400 mg).
(§3) Nephrotoxicity was assessed in two ways: first, by creatanine levels and second by histophathology at necropsy.

Sprague Dawley rats [4] = assay: Creatanine levels in rats during oral D-serine treatment with or without glutathione precursors; type: in vivo
Method: as §1, §2, §3

rat kidney [5] = conditions: rats (Dickey et al 2007), cited from earlier work
[6] = oral NAC vs. hydration alone; cited from earlier work

SMILES: C[C@@H](N)C(=O)O [D-alanine]
Protective effect against D-serine nephrotoxicity (rat kidney [1]): significant protective effects

SMILES: N=C(N)NCCC[C@H](N)C(=O)O [L-arginine]
Effect on nephrotoxic effects of orally administered DL-serine (rat kidney [1]): relatively ineffective

SMILES: CC(C)C(N)C(=O)O (racemic) [DL-valine]
Effect on nephrotoxic effects of orally administered DL-serine (rat kidney [1]): relatively ineffective

SMILES: O=C([O-])c1ccccc1.[Na+] [sodium benzoate]
Prevention of D-serine toxicity (rat kidney [1]; intraperitoneal, large doses (Williams and Lock 2005)): toxicity can be prevented

SMILES: NC(CO)C(=O)O (racemic) [DL-serine]
Renal injury induced (rat kidney [2]; 100 mg DL-serine, rats, stock diet or diet deficient in B vitamins): acute renal necrosis

SMILES: CSCCC(N)C(=O)O (racemic) [DL-methionine]
Effect on nephrotoxic effects of orally administered DL-serine (rat kidney [1]): blocked

SMILES: CCCC(=O)O [butyric acid]
Effect on nephrotoxic effects of orally administered DL-serine (rat kidney [1]): relatively ineffective

SMILES: NCC(=O)O [glycine]
Effect on nephrotoxic effects of orally administered DL-serine (rat kidney [1]): partial or full prevention of toxicity

SMILES: N[C@H](CCO)C(=O)O [D-homoserine]
Protective effect against D-serine nephrotoxicity (rat kidney [1]): significant protective effects

SMILES: CC(=O)[O-].[Na+] [sodium acetate]
Effect on nephrotoxic effects of orally administered DL-serine (rat kidney [1]): relatively ineffective

SMILES: CC(N)C(=O)O (racemic) [DL-alpha-alanine]
Effect on nephrotoxic effects of orally administered DL-serine (rat kidney [1]): relatively ineffective

SMILES: OCC(S)CS (stereo not shown) [2,3 dithiopropanol]
Effect on nephrotoxic effects of orally administered DL-serine (rat kidney [1]): relatively ineffective

SMILES: CC(O)C(=O)[O-].[Na+] (stereo not shown) [sodium lactate]
Effect on nephrotoxic effects of orally administered DL-serine (rat kidney [1]): partial or full prevention of toxicity

SMILES: N[C@@H](Cc1c[nH]cn1)C(=O)O [L-histidine]
Effect on nephrotoxic effects of orally administered DL-serine (rat kidney [1]): relatively ineffective

SMILES: N[C@@H](CCC(=O)N[C@@H](CS)C(=O)NCC(=O)O)C(=O)O [glutathione]
Effect on nephrotoxic effects of orally administered DL-serine (rat kidney [1]): blocked
Prevention of D-serine toxicity (rat kidney [1]; intrarenal injection, equimolar with D-serine (Krug et al 2007)): toxicity can be prevented

SMILES: CC(C)(N)C(=O)O [alpha-aminoisobutryic acid]
Protective effect against D-serine nephrotoxicity (rat kidney [1]): significant protective effects

Increase in creatanine levels during treatment (Sprague Dawley rats [4]; post vs. pre, in words): significant increase
Creatanine level, Change mean (Sprague Dawley rats [4]; post- minus pre-treatment): 0.12
Creatanine level, Post-treatment mean (Sprague Dawley rats [4]; post-treatment, oral gavage, doses escalated 50, 100, 200, 400 mg/kg): 0.77
Creatanine level, Pre-treatment Mean (Sprague Dawley rats [4]; pre-treatment (baseline), rats, oral gavage): 0.65
SMILES: N[C@H](CO)C(=O)O [Group A, D-serine]
Nephrotoxicity in rats lacking DAAO (rat kidney [2]; rats lacking DAAO (Maekawa et al 2005)): not nephrotoxic
Smallest dose consistently producing renal lesions (rat kidney [2]; rats): 5 mg per 100 g
Nephrosis level (mean severity grade of tubular nephrosis) (Sprague Dawley rats [3]): 1.91

SMILES: [Cl-].[Na+] [sodium chloride]
Effect on nephrotoxic effects of orally administered DL-serine (rat kidney [1]): relatively ineffective

SMILES: C[C@@H](O)[C@H](N)C(=O)O (racemic) [DL-threonine]
Effect on nephrotoxic effects of orally administered DL-serine (rat kidney [1]): partial or full prevention of toxicity

SMILES: C[C@H](O)[C@@H](N)C(=O)O [D-threonine]
Protective effect against D-serine nephrotoxicity (rat kidney [1]): significant protective effects

SMILES: O=C[C@H](O)[C@@H](O)[C@H](O)[C@H](O)CO [D-glucose]
Effect on nephrotoxic effects of orally administered DL-serine (rat kidney [1]): relatively ineffective

SMILES: CC(N)(CO)C(=O)O (racemic) [DL-alpha-methylserine]
Protective effect against D-serine nephrotoxicity (rat kidney [1]): significant protective effects

SMILES: O=C([O-])CS.[Na+] [sodium thioglycollate]
Effect on nephrotoxic effects of orally administered DL-serine (rat kidney [1]): relatively ineffective

SMILES: CC(=O)N[C@@H](CS)C(=O)O [NAC, N-acetylcysteine]
Effect against cisplatin-induced experimental nephrotoxicity (rat kidney [5]; intravenous NAC): effective
Effect against cisplatin-induced experimental nephrotoxicity (rat kidney [5]; oral NAC): not found beneficial effects
Blockade of nephrotoxicity due to intravenous contrast [6]: not found benefit over hydration alone

SMILES: CC(C)C(O)C(N)C(=O)O (racemic) [beta-hydroxy-DL-leucine]
Protective effect against D-serine nephrotoxicity (rat kidney [1]): significant protective effects
